Results on two compounds are retold here after patent publication US11612605B2, “(+)-azasetron for use in the treatment of ear disorders” (SENSORION, priority 2016, dated 2023).

The test system of this experiment is SSNHL after acoustic trauma. Briefly: SSNHL model: acoustic trauma (120 dB octave band noise), ABR and DPOAE audiometry. The format is in vivo, male Wistar rats. As to the method: All experiments were performed using 7-week-old male Wistar rats (CERJ, Le Genest, France) in accordance with the French Ministry of Agriculture regulations and European Community Council Directive no. 86/609/EEC, OJL 358. The rats were fed a standard diet ad libitum and maintained on a 12 hours' light-dark cycle.
Auditory Brainstem Reponses (ABR) and Distortion Product Otoacoustic Emissions (DPOAE) were recording using a RZ6 Auditory Workstation (Tucker-Davis Technologies, Alachua, Fla., USA) with animals deeply anesthetized using 90 mg/kg ketamine and 10 mg/kg xylazine and placed on a 35° C. recirculating heating pad inside a sound attenuating cubicle (Med Associates Inc., St. Albans, Vt., USA) throughout the experiment.
For ABR recordings, three stainless steel needle electrodes were placed subdermally over the vertex, the right mastoid and right hind leg of each animal. Tone-pips (5 msec duration presented at a rate of 21/s) at 8, 16 and 24 kHz were delivered to the right ear using a calibrated MF-1 speaker in closed-field configuration (Tucker-Davis Technologies, Alachua, Fla., USA) at attenuating intensity until no reproducible response could be recorded. Close to the ABR threshold, the responses to 1000 acoustic stimuli in 5 dB steps were averaged. Responses were low-pass filtered at 3 kHz.
DPOAEs were recorded and using ER10B+ Low Noise DPOAE microphone (Etymotic Research, Inc., Elk Grove Village, Ill., USA) with acoustic stimuli delivered by two calibrated MF-1 speakers in closed-field configuration (Tucker-Davis Technologies, Alachua, Fla., USA). DPOAEs were recorded at fixed stimulus levels (L1=L2=70 dB SPL), with an f2/f1 ratio of 1.2. Responses were recorded at 4, 8, 16, 24 and 32 kHz.
Animals were exposed to 120 dB octave band noise (8-16 kHz) for 2 hours in groups of 4 rats, placed in individual compartments of a custom built circular cage placed on a 30-cm diameter platform rotating at 3 turns/minute (Aqila Innovation, Valbonne, France). The calibrated octave band noise generated by the RZ6 SigGen software was further amplified by a Crown D-75 amplifier in bridge mode (Crown Audio, Elkhart, Ind., USA) and delivered by four Beyma CPI6 compression tweeters (Acustica Beyma S. L., Moncada, Valencia, Spain) positioned 39 cm above the rotating platform, each 10 cm from the platform center.
The ability of the racemic and two enantiomers of azasetron hydrochloride to reduce SSNHL after acoustic trauma was evaluated in a randomized, vehicle-controlled study with 7 weeks old male Wistar rats. Rats were randomized to receive 4.22 mg/kg of the racemic, two enantiomers of azasetron or vehicle control (physiological saline) by intraperitoneal injection immediately after acoustic trauma, followed by daily dosing for a total of 14 days. Two days prior to acoustic trauma, baseline audiometric readings using auditory brainstem response (ABR) (8, 16, and 24 kHz) were recorded for each animal. Animals were exposed to 120-dB octave-band noise (8-16 kHz) for 2 hours to induce acoustic trauma.
The ability of the (+)-enantiomer of azasetron hydrochloride to reduce SSNHL after acoustic trauma was evaluated in a randomized, vehicle-controlled study in male Wistar rats, 7 weeks of age. Rats were randomized to receive 5, 10, or 20 mg/kg of the (+)-enantiomer of azasetron hydrochloride or vehicle control (physiological saline) by oral gavage immediately after acoustic trauma, followed by daily dosing for a total of 14 days. Two days prior to acoustic trauma, baseline audiometric readings using auditory brainstem response (ABR) (8, 16, and 24 kHz) and distortion-product otoacoustic emissions (DPOAE) (4, 8, 16, 24, and 32 kHz) were recorded for each animal. Post-trauma audiometry recordings were conducted at 14 days.
The ability of the racemic azasetron hydrochloride by oral administration to reduce SSNHL after acoustic trauma was also evaluated. […]

The mark [1] stands for this setting: 10 mg/kg oral gavage daily 14 days after acoustic trauma.
[2] abbreviates: 10 mg/kg oral gavage daily 14 days, baseline to day 14.
[3] abbreviates: 20 mg/kg oral gavage daily 14 days, baseline to day 14.

As to `CN1C(=O)COc2c(C(=O)NC3CN4CCC3CC4)cc(Cl)cc21` (racemic) [Racemic azasetron, N-(1-azabicyclo[2.2.2]octan-8-yl)-6-chloro-4-methyl-3-oxo-1,4-benzoxazine-8-carboxamide], under setting [1], the “protective effect on ABR thresholds” value is “small tendency towards a protective effect” and the “protective effect on DPOAE amplitude loss” value was “small tendency towards a protective effect”.
Turning to `CN1C(=O)COc2c(C(=O)N[C@H]3CN4CCC3CC4)cc(Cl)cc21` [(+)-azasetron], the “ABR threshold shifts compared with racemic azasetron, (−)-enantiomer and vehicle” value (4.22 mg/kg intraperitoneal, daily for 14 days after acoustic trauma, 8, 16, 24 kHz) is listed as “reduced ABR threshold shifts more than racemic azasetron or (−)-enantiomer”. Further, under setting [2], the “mean improvement in hearing (ABR)” value came to 22.3 dB and the “mean reduction of ABR threshold shifts” value is reported as 35.1%. Under setting [3], the “mean improvement in hearing (ABR)” value worked out at 19.4 dB, the “mean reduction of ABR threshold shifts” value turned out to be 30.5% and the “mean reduction of DPOAE amplitude loss” value was found to be 51.2%. Also, where the note is “10- and 20-mg/kg oral doses”, the “reduction of hearing loss (average) by ASLHA criteria versus vehicle control” value is recorded as “from moderately severe (56 to 70 dB) to mild/moderate (26 to 40 dB/41 to 55 dB)”.
